Laboratory results: patent publication US20090305955A1, “Cyclopeptide with Anti-Cancer Activity Derived from Collagen Type IV” (priority 2006, published 2009)
Where a SMILES comes first, the peptide text is derived from it.

Tests used:
PAI-1 = test: Western blot of PAI-1 secretion, UACC-903 cells; assay type: cell-based, human; settings: cyclopeptide 5 to 20 μM
Method: FIG. 15: Effect of YSNSG (SEQ ID NO: 3) cyclopeptide on secretion of PAI-1 (plasminogen activator inhibitor-1). The secretion of PAI-1 was analyzed by Western Blot (A) in a medium conditioned by UACC-903 cells control in the absence of peptide (negative control, white bar), in cells treated with linear heptapeptide CNYYSNS (SEQ ID NO: 5) (20 μM) (positive control, black bar) or treated with YSNSG (SEQ ID NO: 3) cyclopeptide at a concentration from 5 μM to 20 μM (grey bars). The conditioned medium was recovered, concentrated and analyzed as described in the methods.
The samples underwent 10% polyacrylamide gel electrophoresis in the presence of 0.1% SDS then were transferred onto Immobilon-P membranes (Millipore, St Quentin en Yvelines, France). The membranes were saturated with 5% freeze dried skimmed milk, Tween 20 0.1% in a 50 mM Tris-HCl, 150 mM NaCl buffer, pH 7.5 (TBS) for 2 hours at ambient temperature. The membranes were then incubated overnight at 4° C. with anti-MMP-14, anti-PAI-1 and anti-u-PAR antibodies then incubated for one hour at ambient temperature with a secondary antibody (anti-IgG) conjugated with peroxidase. The immune complexes were visualized with an ECL chemoluminescence detection kit.

HUVEC cells = test: Formation of capillary pseudotubes on Matrigel; assay type: cell-based, human; settings: 20 μM
Method: The in vitro anti-angiogenic activity of the cyclopeptide YSNSG (SEQ ID NO: 3) was measured on the formation of capillary pseudotubes by endothelial HMEC-1 or HUVEC cells deposited on a Matrigel mat.
A solution of Matrigel (ECM gel: 10 mg/ml) was deposited in a sterile manner in 24-well plates (Nunclon) in an amount of 250 μl per well onto piled ice. Gel formation was obtained by incubating the plate at 37° C. for 30 min. HMEC-1 cells or HUVEC cells at sub-confluence were detached from their plastic culture support by adding trypsin/EDTA then taken up into suspension in the culture medium for endothelial cells and diluted to a concentration of 2×10^5 cells per ml. 100 μl volumes of this cell suspension were deposited on the gel surface. After incubating for 1 hour at 37° C. to allow cell adhesion, the various peptides were added in solution to 400 μl of the culture medium (final concentration 10 or 20 μM). Pseudotube formation was observed under the microscope and photographed, after incubating for 24 hours. Quantification was carried out using image analysis software.

NC(=O)CC1NC(=O)C(CO)NC(=O)C(Cc2ccc(O)cc2)NC(=O)CNC(=O)C(CO)NC1=O (centres unmarked) [cyclopeptide YSNSG, cyclopeptide YSNSG (SEQ ID NO: 3)] (cyclo(GYSNS); configuration not given here)
secretion of PAI-1 (PAI-1): large increase | inhibition of capillary pseudotube formation (HUVEC cells): 45%
